Results published in US6407058B1, “Modifying the permeability of physiological barriers” (Eisai Co., Limited, priority 1996, dated 2002).

Tested on: p100/p120
Experiment: p100/p120 electrophoretic mobility, LLC-PK1 cells
Format: cell-based, porcine
Conditions: 200 nM PDB, 30 minutes
Method: p100 and p120 electrophoretic mobility is affected by PDB in a number of different epithelial cell lines. LLC-PK1, (a porcine kidney cell line), MDCK strain II cells and gut-derived Caco-2 cells were treated with or without 200 nM PDB for 30 minutes, lysed into Laemmli sample buffer, separated by electrophoresis and analysed by immunoblotting.
MDCK strain I and II cells were provided by Barry Gumbiner (memorial Sloan-Kettering Cancer Center, NY). LLC-PK1 and Caco-2 cells were obtained from the European Collection of Animal Cell Cultures. All cells were maintained at 37° C. under 5% CO2 in humidified air. MDCK strain I and II cells were maintained in MEM containing 10% FCS, 100 U/ml penicillin, 100 μg/ml streptomycin and 2 mM L-glutamine. Caco-2 cells were maintained in MEM containing 15% FCS, 1% non-essential amino acids and 1 μg/ml bovine insulin (Sigma I-6634). LLC-PK1 cells were grown in M199 (Gibco), 10% FCS, 100 U/ml penicillin, 100 μg/ml streptomycin and 2 mM L-glutamine. For whole cell lysate analysis, 10^5 cells were plated on 6.5 mm diameter, 0.4 μm, polycarbonate Transwell filters from Costar, in 0.25 ml of medium. The basolateral chamber contained 0.75 ml of medium. For immunoprecipitation, 5×10^5 cells were plated onto 24 mm Transwell filters, in 2 ml of medium, with 3 ml of medium in the lower chamber. Cells were used 4-7 days after plating. […]

**Q.** With `CCCC(=O)O[C@@H]1[C@@H](C)[C@@]2(O)[C@@H](C=C(CO)C[C@]3(O)C(=O)C(C)=C[C@@H]23)[C@@H]2C(C)(C)[C@]12OC(=O)CCC` [PDB, Phorbol-12,13-dibutyrate] as the molecule, how does the “migration of p100 and p120” value read?
**A.** increased markedly
